# Assay results: patent US10548319B2, “Compositions and methods for synthetic amphiphile-induced changes in plant root morphology” (The Curators of the University of Missouri, priority 2014, dated 2020)
# Where “and” joins values, the source holds several entries; their conditions need not be identical. Equal values may be shown once. Read-outs that look alike come from different tables or passages of the source.
# System: A. thaliana (Col-0) plant
# Format: in vivo, Arabidopsis thaliana
# Excerpt: The effect treating a plant with a composition comprising a synthetic amphiphile on root morphology or other physical characteristics or attributes can be quantitated. For example, a change in primary root length can be determined by measuring the difference, if any, in primary root length of a plant treated with the composition compared to the average of a control sample of plants of the same type grown under identical conditions in the absence of the composition. A change in lateral root density can be determined by comparing the lateral root density of a plant treated with the composition to the average lateral root density of a sample grown under identical conditions in the absence of the composition. Lateral root density can be determined by dividing the number of lateral roots by the length of the primary root. In certain embodiments for any quantitated characteristic or attribute, the average value of the control is the average of a statistically significant population of control plants. For example, in certain illustrative embodiments disclosed herein, three trials of about 20 plants each were used to determine the average of the control.
# Illustrative of certain embodiments, approximately 60 plants were grown on PNS media (no additives) and root lengths and the number of lateral roots were recorded for each. The data points were averaged to obtain the following baseline values: primary root length=40.4±3.8 mm and number of lateral roots=6.1±0.8, respectively. The lateral root density was obtained by dividing the number of lateral roots by the length (in mm) of the primary root. The control value was (6.1/[…]=) 0.15.
# Test compounds were added to the growth medium as 0.2% by volume DMSO. […]
# To make 500 mL PN media, 485 mL doubly distilled (“dd”) H2O was first added to an autoclave beaker. The following salts and nutrients were added to a beaker and mixed well: 5 mL of 250 mM of KPO4 (pH 5.5), 2.5 mL of 1M KNO3, 1 mL of 1M MgSO4, 1 mL of 1M Ca(NO3)2, 0.5 mL of Ferric EDTA (1000× or 49 mM) and 0.5 mL of Micronutrients (1000×). In a 1 L autoclaved bottle, 0.6% (3 g) of bacteriological agar was added, followed by 500 mL solution prepared above. The media was autoclaved using the Liquid-30 program.
# PNS plates were used for plating sterile Arabidopsis thaliana (Columbia-0) seeds. A sterile stock of PNS agar was maintained. Sterile sucrose was added to PN media to make PNS media. To make PNS media containing 0.5% sucrose, 5 mL of 50% sucrose (sterile filtered) was added to 500 mL of PN agar and mixed well.
# The stored PNS media was liquefied using a water bath and allowed to cool to 55° C. The type of plates, compounds, and concentrations to be used were confirmed while the media cooled. The plates were labeled on the cover and the bottom with all the relevant information. 50 mL sterile centrifuge tubes were used to measure 29,940 μL (29.94 mL) PNS media. A fresh sterile 50 mL tube was used for each plate. The desired amount and concentration of compound was added to the PNS media, mixed by inverting the tube and poured in the plate. Total volume of media and compound in each plate was kept constant at 30 mL. A maximum of 60 μL (0.2% by volume) compound was added per plate. For example: 60 μL of 25 mM compound was added to 29.94 mL PNS media to get final concentration of 50 μM compound in PNS media. Plates were incubated at room temperature for 2 hours before plating seeds on them.
# Hands and bench area were washed thoroughly before beginning. Sterilizing solution was prepared in a sterile 15 mL centrifuge tube, by mixing 5 mL of 30% bleach and 5 μL of 10% Triton X-100. A. thaliana Col-0 seeds were added to sterile 1.5 mL micro-centrifuge tube. 500 μL of sterilizing solution (30% bleach+0.01% Triton X-100) was added to the seeds, vortexed for 3 seconds and incubated at room temperature for 8 minutes. After 8 minutes, bleach was removed and 1 mL autoclaved MilliQ water was added. […]
# [1] = 100 nM in PNS, positive control
# [2] = Table 2, 50 μM in PNS, no unit in table (method: millimeters)
# [3] = Table 2, 20 μM in PNS, no unit in table (method: millimeters)
compound,measurement,setting,value
"O=C(O)COc1ccc(Cl)cc1Cl [2,4-D, 2,4-Dichlorophenoxyacetic acid, reference compound]",Lateral root density,[1],0.85 and 0.85 ± 0.12
same,Number of lateral roots,[1],3.4±0.6
same,Primary root length,[1],3.9±0.6 mm
CCCCCC(=O)N1CCOCCOCCN(C(=O)CCCCC)CCOCCOCC1 [C6 lariat ether amide],Lateral root density,"Table 2, 50 μM",0.15
same,Number lateral roots,"Table 2, 50 μM",5.6
same,Percent decrease 1° root,"Table 2, 50 μM",4.9%
same,Primary root length,[2],38.6 mm
CCCCCCN1CCOCCOCCN(CCCCCC)CCOCCOCC1 [C6 lariat ether],Lateral root density,"Table 2, 20 μM",0.18
same,Number lateral roots,"Table 2, 20 μM",6.6
same,Percent decrease 1° root,"Table 2, 20 μM",5.9%
same,Primary root length,[3],38.3 mm
same,Lateral root density,"Table 2, 50 μM",0.14
same,Number lateral roots,"Table 2, 50 μM",4.6
same,Percent decrease 1° root,"Table 2, 50 μM",18.8%
same,Primary root length,[2],33 mm
CCCCCCC(=O)N1CCOCCOCCN(C(=O)CCCCCC)CCOCCOCC1 [C7 lariat ether amide],Lateral root density,"Table 2, 20 μM",0.21
same,Number lateral roots,"Table 2, 20 μM",4.5
same,Percent decrease 1° root,"Table 2, 20 μM",45.3%
same,Primary root length,[3],22.9 mm
same,Lateral root density,"Table 2, 50 μM",0.65
same,Number lateral roots,"Table 2, 50 μM",4.2
same,Percent decrease 1° root,"Table 2, 50 μM",82.5%
same,Primary root length,[2],7.3 mm
"CCCCCCCC(=O)N1CCOCCOCCN(C(=O)CCCCCCC)CCOCCOCC1 [C8 lariat ether amide, N,N′-Dioctanoyl-4,13-diaza-18-crown-6]",Lateral root density,"Table 2, 50 μM",0.17
same,Number lateral roots,"Table 2, 50 μM",5.2
same,Percent decrease 1° root,"Table 2, 50 μM",23.2%
same,Primary root length,[2],31.2 mm
"CCCCCCCCN1CCOCCOCCN(CCCCCCCC)CCOCCOCC1 [C8 lariat ether, N,N′-Di-n-octyl-4,13-diaza-18-crown-6]",Lateral root density with increasing concentration,"0 μM to 50 μM, FIG. 7",Linear increase in lateral root density
same,Lateral root density,"Table 2, 20 μM",0.64
same,Number lateral roots,"Table 2, 20 μM",5.1
same,Percent decrease 1° root,"Table 2, 20 μM",83.4%
same,Primary root length,[3],6.8 mm
same,Lateral root density,"Table 2, 50 μM",1.38
same,Number lateral roots,"Table 2, 50 μM",2.2
same,Percent decrease 1° root,"Table 2, 50 μM",96.1%
same,Primary root length,[2],1.6 mm
same,Change in root morphology,lariat ether 20 μM,significant change in root morphology
CCCCCCCCC(=O)N1CCOCCOCCN(C(=O)CCCCCCCC)CCOCCOCC1 [C9 lariat ether amide],Lateral root density,"Table 2, 20 μM",0.19
same,Number lateral roots,"Table 2, 20 μM",1.6
same,Percent decrease 1° root,"Table 2, 20 μM",78.2%
same,Primary root length,[3],9.2 mm
same,Lateral root density,"Table 2, 50 μM",0.13
same,Number lateral roots,"Table 2, 50 μM",2
same,Percent decrease 1° root,"Table 2, 50 μM",62.6%
same,Primary root length,[2],15.7 mm
"CCCCCCCCCC(=O)N1CCOCCOCCN(C(=O)CCCCCCCCC)CCOCCOCC1 [C10 lariat ether amide, N,N′-Didecanoyl-4,13-diaza-18-crown-6]",Lateral root density,"Table 2, 50 μM",0.19
same,Number lateral roots,"Table 2, 50 μM",0.6
same,Percent decrease 1° root,"Table 2, 50 μM",92.4%
same,Primary root length,[2],3.1 mm
